According to BindingDB's records for doi:10.1021/jm010999g (2002):
pKd: −log10 of the molar value.

How the values were obtained:
[1] = target: T1, ATP-binding cassette sub-family C member 9 (Rattus norvegicus, UniProt Q63563); assay: Binding affinity to the sulfonylurea receptor 2A (SUR2A) in purified membranes of rat-heart myocytes
[2] = target: T1, ATP-binding cassette sub-family C member 9; assay: Binding affinity towards Sulfonylurea receptor 2B (SUR2B) in cultured rat aortic smooth muscle cells (SMC)

T1 sequence (Q63563 whole entry): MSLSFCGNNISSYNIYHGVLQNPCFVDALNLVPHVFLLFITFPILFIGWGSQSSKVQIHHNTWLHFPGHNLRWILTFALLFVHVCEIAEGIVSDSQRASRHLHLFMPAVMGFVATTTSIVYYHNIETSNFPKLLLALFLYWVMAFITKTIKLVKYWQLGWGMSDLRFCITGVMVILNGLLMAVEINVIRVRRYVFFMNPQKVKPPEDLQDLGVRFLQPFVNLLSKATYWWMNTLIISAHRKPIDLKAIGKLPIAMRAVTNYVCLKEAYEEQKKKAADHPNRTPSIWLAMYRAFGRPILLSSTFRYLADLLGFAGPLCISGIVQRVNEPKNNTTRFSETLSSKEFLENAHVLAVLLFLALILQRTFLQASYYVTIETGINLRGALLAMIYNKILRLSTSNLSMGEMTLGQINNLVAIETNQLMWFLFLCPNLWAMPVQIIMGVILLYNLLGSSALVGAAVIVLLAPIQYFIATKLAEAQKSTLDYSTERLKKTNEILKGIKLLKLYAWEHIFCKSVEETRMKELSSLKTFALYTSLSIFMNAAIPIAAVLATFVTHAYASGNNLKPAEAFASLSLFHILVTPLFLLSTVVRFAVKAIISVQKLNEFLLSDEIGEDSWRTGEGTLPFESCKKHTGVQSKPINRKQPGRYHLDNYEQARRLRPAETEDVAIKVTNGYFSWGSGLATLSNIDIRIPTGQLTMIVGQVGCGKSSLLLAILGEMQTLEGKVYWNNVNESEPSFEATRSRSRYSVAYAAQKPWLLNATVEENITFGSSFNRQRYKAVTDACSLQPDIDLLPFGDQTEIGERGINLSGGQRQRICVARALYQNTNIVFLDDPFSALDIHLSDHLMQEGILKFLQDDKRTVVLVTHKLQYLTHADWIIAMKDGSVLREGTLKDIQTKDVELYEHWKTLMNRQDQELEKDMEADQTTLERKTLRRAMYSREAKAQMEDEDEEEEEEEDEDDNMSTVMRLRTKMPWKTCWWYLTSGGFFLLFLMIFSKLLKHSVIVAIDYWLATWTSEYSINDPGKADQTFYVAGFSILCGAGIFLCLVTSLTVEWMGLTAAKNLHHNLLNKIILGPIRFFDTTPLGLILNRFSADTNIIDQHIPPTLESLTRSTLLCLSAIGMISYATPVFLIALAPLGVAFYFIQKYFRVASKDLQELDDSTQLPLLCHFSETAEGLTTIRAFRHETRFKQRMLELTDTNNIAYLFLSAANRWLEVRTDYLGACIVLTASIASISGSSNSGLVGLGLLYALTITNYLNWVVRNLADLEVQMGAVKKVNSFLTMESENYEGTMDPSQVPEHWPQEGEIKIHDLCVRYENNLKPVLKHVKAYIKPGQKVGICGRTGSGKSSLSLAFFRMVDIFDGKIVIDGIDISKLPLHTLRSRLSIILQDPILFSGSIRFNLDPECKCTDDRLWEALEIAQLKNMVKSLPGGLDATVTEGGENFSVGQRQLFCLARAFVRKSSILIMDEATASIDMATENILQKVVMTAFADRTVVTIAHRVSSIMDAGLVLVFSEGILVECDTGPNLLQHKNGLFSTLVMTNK

SMILES	pKd [1]	pKd [2]
CC1(C)C=C(n2ccccc2=O)c2cc(S(=O)(=O)Nc3ccccc3Br)ccc2O1	6.86	7.64
CC(C)NS(=O)(=O)c1ccc2c(c1)C(n1ccccc1=O)=CC(C)(C)O2	5.18	5.08
CC1(C)C=C(n2ccccc2=O)c2cc(S(=O)(=O)NC(=O)NC3CCCCC3)ccc2O1	5.25	
CC1(C)C=C(n2ccccc2=O)c2cc(S(=O)(=O)NCc3ccccc3)ccc2O1	5.28	6.00
CC1(C)C=C(n2ccccc2=O)c2cc(S(=O)(=O)Nc3ccccc3F)ccc2O1	7.64	7.96
CC1(C)C=C(n2ccccc2=O)c2cc(S(=O)(=O)Nc3ccc(Br)cc3)ccc2O1	5.77	6.65
CC1(C)C=C(n2ccccc2=O)c2cc(S(=O)(=O)F)ccc2O1	7.82	8.01
CCN(CC)S(=O)(=O)c1ccc2c(c1)C(n1ccccc1=O)=CC(C)(C)O2	6.45	6.94
CC1(C)C=C(n2ccccc2=O)c2cc(S(=O)(=O)NC(=O)Nc3ccccc3)ccc2O1	5.55	
COc1ccc(NS(=O)(=O)c2ccc3c(c2)C(n2ccccc2=O)=CC(C)(C)O3)cc1	6.27	6.61
CC1(C)C=C(n2ccccc2=O)c2cc(S(=O)(=O)NC3CCCC3)ccc2O1	5.85	6.27
CC1(C)C=C(n2ccccc2=O)c2cc(S(=O)(=O)c3ccccc3)ccc2O1	6.86	7.19
CN(C)S(=O)(=O)c1ccc2c(c1)C(n1ccccc1=O)=CC(C)(C)O2	6.91	7.20
CCNS(=O)(=O)c1ccc2c(c1)C(n1ccccc1=O)=CC(C)(C)O2	6.70	7.00
CC1(C)Oc2ccc(S(=O)(=O)c3ccccc3)cc2[C@@H](N2CCCC2=O)[C@@H]1O [Rilmakalim]	7.57	8.15
CC1(C)C=C(n2ccccc2=O)c2cc(S(=O)(=O)Nc3ccc(C#N)cc3)ccc2O1	5.50	6.12
CC1(C)C=C(n2ccccc2=O)c2cc(S(=O)(=O)Nc3ccccc3)ccc2O1	7.82	8.05
CNS(=O)(=O)c1ccc2c(c1)C(n1ccccc1=O)=CC(C)(C)O2	7.18	7.26
CC1(C)C=C(n2ccccc2=O)c2cc(S(=O)(=O)Nc3ccc([N+](=O)[O-])cc3)ccc2O1	5.35	5.80
CC1(C)C=C(n2ccccc2=O)c2cc(S(=O)(=O)N3CCOCC3)ccc2O1	6.44	6.73
[2H]c1c([2H])c([2H])c(NS(=O)(=O)c2ccc3c(c2)C(n2ccccc2=O)=CC(C)(C)O3)c([2H])c1[2H]	7.72	8.13
CC1(C)C=C(n2ccccc2=O)c2cc(S(N)(=O)=O)ccc2O1	6.50	6.94
CC1(C)C=C(n2ccccc2=O)c2cc(S(=O)(=O)N=[N+]=[N-])ccc2O1	7.82	
CC1(C)C=C(n2ccccc2=O)c2cc(S(=O)(=O)NCCO)ccc2O1	6.16	6.34
CC1(C)C=C(n2ccccc2=O)c2cc(C#N)ccc2O1 [Bimakalim]	7.25	8.00
CC1(C)C=C(n2ccccc2=O)c2cc(S(=O)(=O)Oc3ccccc3)ccc2O1	7.77	8.55
CN(c1ccccc1)S(=O)(=O)c1ccc2c(c1)C(n1ccccc1=O)=CC(C)(C)O2	7.70	7.89
